Measurements published in patent publication US10023519B2, “Cyclobutane containing carboxylic acid GPR120 modulators” (BRISTOL-MYERS SQUIBB COMPANY, priority 2014, dated 2018).

Biological target: human GPR120 (Homo sapiens (Human), UniProt Q5NUL3)
Assay: GPR120 pERK AlphaScreen SureFire Assay (human)
Type: cell-based
Conditions: CHO cells stably transfected with short form of human GPR120
Source text: GPR120 activity was monitored by measuring phosphorylation of ERK (pERK), since G protein receptors are known to activate the ERK signaling cascade either directly and/or through recruitment of arrestin that serves as a scaffold for downstream signaling events.
GPR120 pERK AlphaScreen SureFire Assay
The human and mouse GPR120-mediated intracellular phosphorylated ERK assays were established using CHOA12 cells stably transfected with the short form of human or mouse GPR120 receptor. […] Cells were cryo preserved at a concentration of 2×10^7 cells/mL, in 90% Charcoal/Dextran FBS and 10% DMSO, and frozen in liquid nitrogen at a low passage number.
The flasks were placed in a tissue culture incubator overnight (37° C., 5% CO2). […] The next day, cells were serum starved in 30 μL of F-12 media without any serum or antibiotics for 2 hours at 37° C.
Cells were then stimulated with 50 nL of compound dilutions using ECHO liquid handler for 7 minutes at 37° C.
(§1) The lysis buffer was diluted 5-fold with water before use. […] The SureFire assay reagent mix was prepared by mixing 60 parts Reaction Buffer, 10 parts Activation Buffer, 1 part Donor Beads, 1 part Acceptor Beads (Perkin Elmer Cat. #TGRES10K). 3.5 μL/well of this reagent mix was manually added to the proxiplate with a multichannel pipettor. Plates were spun down at 1000 rpm for 2 minutes, followed by light-protected incubation at room temperature for 2 hours. The plates were read on the Alpha-technology compatible Envision multilabel plate reader using AlphaScreen protocol according to manufacturer's specifications. The agonist effect of compounds was expressed as 100× (average sample−average blank)/(average total−average blank) where sample is the luminescence activity in the presence of test compound, blank is equal to the luminescence activity in the presence of DMSO control and the total is signal induced by 50 μM linolenic acid as reference compound. Activation data for the test compound over a range of concentrations was plotted as percentage activation of the test compound (100%=maximum response). After correcting for background, EC50 values were determined.
The human and mouse GPR120-mediated intracellular phosphorylated ERK assays were also established using CHO-K1 cells stably transfected with the short form of human or mouse GPR120 receptor. […] Cells were cryo preserved at a concentration of 3×10^6 cells/mL, in 70% F-12, 20% Charcoal/Dextran FBS and 10% DMSO, and frozen in liquid nitrogen at a low passage number.
The flasks were placed in a tissue culture incubator overnight (37° C., 5% CO2).
Cells were then stimulated with 40 nL of compound dilutions using ECHO liquid handler for 7 minutes at 37° C.
as §1, with “compound.” for “compound. Activation data for the test compound over a range of concentrations was plotted as percentage activation of the test compound (100%=maximum response). After correcting for background, EC50 values were determined.”
Activation data for the test compound over a range of concentrations was plotted as percentage activation of the test compound (100%=maximum response). After correcting for background, EC50 values were determined.

Chain of human GPR120 (Q5NUL3 whole entry): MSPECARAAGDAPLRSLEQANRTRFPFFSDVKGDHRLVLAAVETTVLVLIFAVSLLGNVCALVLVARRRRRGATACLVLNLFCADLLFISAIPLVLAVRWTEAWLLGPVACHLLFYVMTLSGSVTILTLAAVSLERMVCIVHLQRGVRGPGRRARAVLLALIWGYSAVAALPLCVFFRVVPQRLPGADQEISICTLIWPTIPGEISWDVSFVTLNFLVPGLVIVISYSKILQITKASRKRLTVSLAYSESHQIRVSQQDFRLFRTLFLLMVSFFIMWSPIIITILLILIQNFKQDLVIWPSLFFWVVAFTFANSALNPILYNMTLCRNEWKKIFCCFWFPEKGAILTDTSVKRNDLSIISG

Point of comparison: `Cc1ccc(Oc2ccc(F)c(-c3ccc([C@H]4C[C@@H](OCC(=O)O)C4)cc3)c2)cn1` [Example 20, Cis-2-(3-(2′-fluoro-5′-((6-methylpyridin-3-yl)oxy)-[1,1′-biphenyl]-4-yl)cyclobutoxy) acetic acid], EC50 270 nM. Against it:
- CC(C)Oc1cccc(-c2ccc([C@H]3C[C@@H](OCC(=O)O)C3)cc2)c1F [Example 10, Cis-2-(3-(2′-fluoro-3′-isopropoxy-[1,1′-biphenyl]-4-yl)cyclobutoxy) acetic acid] — 3.8-fold higher, 1020 nM
- Cc1cc(OC(C)C)cc(-c2ccc([C@H]3C[C@@H](OCC(=O)O)C3)cc2)c1 [Example 12, Cis-2-(3-(3′-isopropoxy-5′-methyl-[1,1′-biphenyl]-4-yl)cyclobutoxy) acetic acid] — 1.6-fold higher, 430 nM
- Cc1ccc(Oc2ccc(F)c(-c3ccc([C@H]4C[C@@H](OCC(=O)O)C4)cc3)c2)cc1 [Example 31, Cis-2-(3-(2′-fluoro-5′-(p-tolyloxy)-[1,1′-biphenyl]-4-yl)cyclobutoxy)acetic acid] — 2.6-fold higher, 710 nM
- O=C(O)CO[C@H]1C[C@@H](c2ccc(-c3cc(Oc4ccncc4)ccc3F)cc2)C1 [Example 25, Cis-2-(3-(2′-fluoro-5′-(pyridin-4-yloxy)-[1,1′-biphenyl]-4-yl)cyclobutoxy)acetic acid] — 7-fold higher, 1900 nM
- Cc1nc(-c2ccccc2)c(-c2ccc([C@H]3C[C@@H](OCC(=O)O)C3)cc2)s1 [Example 23, Cis-2-(3-(4-(2-Methyl-4-phenylthiazol-5-yl)phenyl)cyclobutoxy)acetic acid] — 13-fold higher, 3460 nM
- CC(C)Oc1cc(Cl)cc(-c2ccc([C@H]3C[C@@H](OCC(=O)O)C3)cc2)c1 [Example 11, Cis-2-(3-(3′-chloro-5′-isopropoxy-[1,1′-biphenyl]-4-yl)cyclobutoxy) acetic acid] — 2.1-fold higher, 560 nM
- O=C(O)CCOC[C@H]1C[C@@H](OCc2cccc(Oc3ccccc3)c2)C1 [Example 55, 3-((Cis-3-(3-phenoxybenzyloxy)cyclobutyl)methoxy)propanoic acid] — 1.7-fold higher, 470 nM
- CC(C)Oc1cc(F)cc(-c2ccc([C@H]3C[C@@H](OCC(=O)O)C3)cc2)c1 [Example 18, Cis-2-(3-(3′-fluoro-5′-isopropoxy-[1,1′-biphenyl]-4-yl)cyclobutoxy) acetic acid] — 12-fold higher, 3130 nM
- CC(C)Oc1ccc(F)c(-c2ccc(C[C@H]3C[C@H](CC(=O)O)C3)cc2)c1 [Example 52, 2-(Trans-3-((2′-fluoro-5′-isopropoxy-[1,1′-biphenyl]-4-yl)methyl)cyclobutyl)acetic acid] — 3.5-fold higher, 940 nM
- Cc1nc(-c2ccc(F)c(-c3ccc([C@H]4C[C@@H](OCC(=O)O)C4)cc3)c2)no1 [Example 21, Cis-2-(3-(2′-Fluoro-5′-(5-methyl-1,2,4-oxadiazol-3-yl)-[1,1′-biphenyl]-4-yl)cyclobutoxy)acetic acid] — 2-fold higher, 550 nM
- O=C(O)COCC1CC(OCc2cccc(Oc3ccccc3)c2)C1 (stereo not drawn) [Example 54, 2-((3-(3-Phenoxybenzyloxy)cyclobutyl)methoxy)acetic acid] — 14-fold higher, 3850 nM
- Cc1ccc(Oc2cc(F)c(F)c(-c3ccc([C@H]4C[C@@H](OCC(=O)O)C4)cc3)c2)cc1 [Example 38, Cis-2-(3-(2′,3′-difluoro-5′-(p-tolyloxy)-[1,1′-biphenyl]-4-yl)cyclobutoxy)acetic acid] — 2-fold higher, 540 nM
- COC1(c2cccc(Oc3ccccc3)c2)CC(CCCOCC(=O)O)C1 (stereo not drawn) [Example 68, 2-(3-(3-Methoxy-3-(3-phenoxyphenyl)cyclobutyl)propoxy)acetic acid] — 10-fold higher, 2800 nM
- Cc1ccc(Oc2cc(F)c(F)c(-c3ccc([C@H]4C[C@@H](OCC(=O)O)C4)cc3)c2)cc1F [Example 35, Cis-2-(3-(2′,3′-difluoro-5′-(3-fluoro-4-methylphenoxy)-[1,1′-biphenyl]-4-yl)cyclobutoxy)acetic acid] — within 1.5-fold, 290 nM
- COc1cc(Cl)cc(-c2ccc([C@H]3C[C@@H](OCC(=O)O)C3)cc2)c1 [Example 6, Cis-2-(3-(3′-chloro-5′-methoxy-[1,1′-biphenyl]-4-yl)cyclobutoxy)acetic acid] — 3.3-fold higher, 880 nM
- O=C(O)CO[C@H]1C[C@@H](c2ccc(-c3cc(OC(F)(F)F)ccc3F)cc2)C1 [Example 17, Cis-2-(3-(2′-fluoro-5′-(trifluoromethoxy)-[1,1′-biphenyl]-4-yl)cyclobutoxy)acetic acid] — 2-fold higher, 550 nM
- O=C(O)CO[C@H]1C[C@@H](c2ccc(-c3cc(Oc4cccc(F)c4)cc(F)c3F)cc2)C1 [Example 36, Cis-2-(3-(2′,3′-difluoro-5′-(3-fluorophenoxy)-[1,1′-biphenyl]-4-yl)cyclobutoxy) acetic acid] — 2.1-fold lower, 130 nM
- CC(C)Oc1cccc(-c2ccc([C@H]3C[C@@H](OCC(=O)O)C3)cc2)c1 [Example 7, Cis-2-(3-(3′-isopropoxy-[1,1′-biphenyl]-4-yl)cyclobutoxy) acetic acid] — 2.2-fold higher, 590 nM
- Cc1ncc(Oc2ccc(F)c(-c3ccc([C@H]4C[C@@H](OCC(=O)O)C4)cc3)c2)s1 [Example 27, Cis-2-(3-(2′-fluoro-5′-((2-methylthiazol-5-yl)oxy)-[1,1′-biphenyl]-4-yl)cyclobutoxy)acetic acid] — 1.6-fold higher, 420 nM
- O=C(O)C[C@H]1C[C@@H](Oc2ccc(-c3cc(Oc4ccccc4)ccc3F)cc2)C1 [Example 67, Cis-2-(3-((2′-fluoro-5′-phenoxy-[1,1′-biphenyl]-4-yl)oxy)cyclobutyl)acetic acid] — within 1.5-fold, 330 nM
- O=C(O)CO[C@H]1C[C@@H](c2ccc(-c3cccc(C(=O)c4ccccc4)c3)cc2)C1 [Example 14, Cis-2-(3-(3′-benzoyl-[1,1′-biphenyl]-4-yl)cyclobutoxy) acetic acid] — 3.1-fold higher, 830 nM
- O=C(O)[C@H]1C[C@H](Oc2ccc(-c3cc(Oc4ccccc4)ccc3F)cc2)C1 [Example 64, Trans-3-((2′-fluoro-5′-phenoxy-[1,1′-biphenyl]-4-yl)oxy)cyclobutanecarboxylic acid] — 1.6-fold higher, 440 nM
- O=C(O)[C@H]1CC1[C@H]1C[C@@H](c2ccc(-c3cc(Oc4ccccc4)ccc3F)cc2)C1 (stereo in doubt) [Example 40, 2-(3-(2′-Fluoro-5′-phenoxy-[1,1′-biphenyl]-4-yl)cyclobutyl)cyclopropanecarboxylic acid] — 34-fold higher, 9270 nM
- Cc1ccc(Oc2ccc(F)c(-c3ccc([C@H]4C[C@@H](OCC(=O)O)C4)cc3)c2)nn1 [Example 29, Cis-2-(3-(2′-fluoro-5′-((6-methylpyridazin-3-yl)oxy)-[1,1′-biphenyl]-4-yl)cyclobutoxy)acetic acid] — 19-fold higher, 5000 nM
- CC(C)Oc1ccc(F)c(-c2ccc(C[C@H]3C[C@@H](CC(=O)O)C3)cc2)c1 [Example 51, 2-(Cis-3-((2′-fluoro-5′-isopropoxy-[1,1′-biphenyl]-4-yl)methyl)cyclobutyl)acetic acid] — 2.1-fold higher, 560 nM
- O=C(O)CO[C@H]1C[C@@H](c2ccc(-c3cc(Oc4ccc(F)cc4)cc(F)c3F)cc2)C1 [Example 34, Cis-2-(3-(2′,3′-difluoro-5′-(4-fluorophenoxy)-[1,1′-biphenyl]-4-yl)cyclobutoxy)acetic acid] — within 1.5-fold, 240 nM
- CC(C)Sc1ncc(C(F)(F)F)cc1-c1ccc([C@H]2C[C@@H](OCC(=O)O)C2)cc1 [Example 13, Cis-2-(3-(4-(2-(isopropylthio)-5-(trifluoromethyl)pyridin-3-yl)phenyl)cyclobutoxy)acetic acid] — 9.7-fold higher, 2610 nM
- CC(C)Oc1ccc(F)c(-c2ccc([C@H]3C[C@@H](OCC(=O)O)C3)cc2)c1F [Example 15, Cis-2-(3-(2′,6′-difluoro-3′-isopropoxy-[1,1′-biphenyl]-4-yl)cyclobutoxy)acetic acid] — 3-fold higher, 800 nM
- CC(C)Oc1ccc(F)c(-c2ccc(C3CC4(C3)CC4C(=O)O)cc2)c1 (single isomer, unassigned) [Example 41, 5-(2′-Fluoro-5′-isopropoxy-[1,1′-biphenyl]-4-yl)spiro[2.3]hexane-1-carboxylic acid] — 120-fold higher, 32000 nM
